Columns and labels:
[1] = biological target: T1, Vitamin D3 receptor (Sus scrofa) (UniProt A3RGC1); assay: Affinity for pig intestinal mucosa vitamin D receptor (VDR)
T1 sequence (whole entry): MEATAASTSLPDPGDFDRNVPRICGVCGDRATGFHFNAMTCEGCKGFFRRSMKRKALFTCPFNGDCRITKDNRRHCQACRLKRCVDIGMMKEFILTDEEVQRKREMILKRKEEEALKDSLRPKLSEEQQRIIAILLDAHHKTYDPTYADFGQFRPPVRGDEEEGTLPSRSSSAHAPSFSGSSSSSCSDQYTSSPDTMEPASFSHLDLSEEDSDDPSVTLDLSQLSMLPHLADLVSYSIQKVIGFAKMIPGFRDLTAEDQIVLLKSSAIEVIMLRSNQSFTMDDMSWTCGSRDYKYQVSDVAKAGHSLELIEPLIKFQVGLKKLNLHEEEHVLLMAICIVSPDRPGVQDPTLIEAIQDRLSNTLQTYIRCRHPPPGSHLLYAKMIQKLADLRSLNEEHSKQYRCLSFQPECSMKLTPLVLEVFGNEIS

[2] = biological target: T2, Vitamin D3 receptor (Homo sapiens) (UniProt P11473); assay: Relative affinity compared to Calcitriol in displacement of [3H]1H]1-alpha,25(OH)2D3 from vitamin D receptor (VDR) in HL-60 cells; format: functional, cell-based
T2 sequence (whole entry): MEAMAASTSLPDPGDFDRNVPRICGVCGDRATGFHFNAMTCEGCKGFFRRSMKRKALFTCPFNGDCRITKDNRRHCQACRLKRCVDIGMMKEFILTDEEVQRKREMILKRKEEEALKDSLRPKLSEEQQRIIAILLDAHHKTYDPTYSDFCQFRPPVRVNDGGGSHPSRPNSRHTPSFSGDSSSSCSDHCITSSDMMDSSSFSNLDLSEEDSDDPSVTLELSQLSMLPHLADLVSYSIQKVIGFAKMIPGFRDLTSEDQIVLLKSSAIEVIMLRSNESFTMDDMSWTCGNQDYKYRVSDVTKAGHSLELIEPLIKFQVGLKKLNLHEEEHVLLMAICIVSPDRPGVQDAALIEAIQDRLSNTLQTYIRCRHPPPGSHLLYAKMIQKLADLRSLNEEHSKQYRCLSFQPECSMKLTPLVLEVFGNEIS

[3] = biological target: T2, Vitamin D3 receptor (Homo sapiens); assay: Relative affinity compared to Calcitriol in displacement of [3H]1H]1-alpha,25(OH)2D3 from vitamin D receptor (VDR) in […] cells; format: cell-based
[4] = system: Mus musculus; assay: In vivo calcemic effect was tested in vitamin D replete normal […] mice by measuring calcium levels in serum; format: functional
[5] = biological target: T2, Vitamin D3 receptor (Homo sapiens); assay: Relative affinity compared to Calcitriol in displacement of [3H]1H]1-alpha,25(OH)2D3 from vitamin receptor (VDR) in keratinocyte cells; format: functional, cell-based
[6] = biological target: T2, Vitamin D3 receptor (Homo sapiens); assay: Relative affinity compared to Calcitriol in displacement of [3H]1H]1-alpha,25(OH)2D3 from vitamin D3 receptor in HL-60 cells; format: cell-based
[7] = biological target: T1, Vitamin D3 receptor (Sus scrofa); assay: Affinity for pig intestinal mucosa Vitamin D3 receptor (VDR); format: tissue-based
[8] = biological target: T2, Vitamin D3 receptor (Homo sapiens); assay: Relative affinity compared to Calcitriol in displacement of [3H]1H]1-alpha,25(OH)2D3 from vitamin D3 receptor in […] cells; format: cell-based
[9] = biological target: T2, Vitamin D3 receptor (Homo sapiens); assay: Relative affinity compared to Calcitriol in displacement of [3H]1H]1-alpha,25(OH)2D3 from Vitamin D3 receptor in Keratinocyte cell lines

Activity [1]	Activity [2] [%]	Activity [3] [%]	Activity [5] [%]	Activity [6] [%]	Activity [7]	Activity [8] [%]	Activity [9] [%]	Compound	Activity [4]
75	150	150	250	–	–	–	–	C=C1/C(=C/C=C2/CCC[C@]3(C)[C@@H]([C@H](C)CC#C[C@]4(C)CO4)CC[C@@H]23)C[C@@H](O)C[C@@H]1O	0.2
–	–	–	–	150	80	150	250	C=C1/C(=C/C=C2/CCC[C@]3(C)[C@@H]([C@H](C)CC#C[C@@](C)(O)CO)CC[C@@H]23)C[C@@H](O)C[C@@H]1O	0.1
–	–	–	–	150	70	150	250	C=C1/C(=C/C=C2/CCC[C@]3(C)[C@@H]([C@H](C)CC#CC4(C)CO4)CC[C@@H]23)C[C@@H](O)C[C@@H]1O (stereo not given in full)	0.25
–	–	–	–	150	60	150	250	C=C1/C(=C/C=C2/CCC[C@]3(C)[C@@H]([C@H](C)CC#C[C@@]4(C)CO4)CC[C@@H]23)C[C@@H](O)C[C@@H]1O	0.3
–	–	–	–	150	70	150	250	C=C1/C(=C/C=C2/CCC[C@]3(C)[C@@H]([C@H](C)CC#C[C@](C)(O)CO)CC[C@@H]23)C[C@@H](O)C[C@@H]1O	0.7
